# Source: patent US10428081B2, “EGFR inhibitor, preparation method and use thereof” (Shanghai Hansoh Biomedical Co., Ltd., priority 2014, dated 2019)
# Like-named read-outs stand apart in the source and are kept apart here.
# Legend:
# [1] = molecular target: exon 20 T790M mutant-type EGFR enzyme (Homo sapiens, UniProt P00533, T790M); experiment: Enzymologic experiment of T790M mutant-type EGFR (TR-FRET); assay type: biochemical; details: for IC50: T790M EGFR enzyme, TR-FRET, ATP 1 to 10 uM; for Selectivity of wild-type/mutant-type: ratio WT IC50 / T790M IC50, enzyme
# Chain of exon 20 T790M mutant-type EGFR enzyme (P00533 25-1210 T790M): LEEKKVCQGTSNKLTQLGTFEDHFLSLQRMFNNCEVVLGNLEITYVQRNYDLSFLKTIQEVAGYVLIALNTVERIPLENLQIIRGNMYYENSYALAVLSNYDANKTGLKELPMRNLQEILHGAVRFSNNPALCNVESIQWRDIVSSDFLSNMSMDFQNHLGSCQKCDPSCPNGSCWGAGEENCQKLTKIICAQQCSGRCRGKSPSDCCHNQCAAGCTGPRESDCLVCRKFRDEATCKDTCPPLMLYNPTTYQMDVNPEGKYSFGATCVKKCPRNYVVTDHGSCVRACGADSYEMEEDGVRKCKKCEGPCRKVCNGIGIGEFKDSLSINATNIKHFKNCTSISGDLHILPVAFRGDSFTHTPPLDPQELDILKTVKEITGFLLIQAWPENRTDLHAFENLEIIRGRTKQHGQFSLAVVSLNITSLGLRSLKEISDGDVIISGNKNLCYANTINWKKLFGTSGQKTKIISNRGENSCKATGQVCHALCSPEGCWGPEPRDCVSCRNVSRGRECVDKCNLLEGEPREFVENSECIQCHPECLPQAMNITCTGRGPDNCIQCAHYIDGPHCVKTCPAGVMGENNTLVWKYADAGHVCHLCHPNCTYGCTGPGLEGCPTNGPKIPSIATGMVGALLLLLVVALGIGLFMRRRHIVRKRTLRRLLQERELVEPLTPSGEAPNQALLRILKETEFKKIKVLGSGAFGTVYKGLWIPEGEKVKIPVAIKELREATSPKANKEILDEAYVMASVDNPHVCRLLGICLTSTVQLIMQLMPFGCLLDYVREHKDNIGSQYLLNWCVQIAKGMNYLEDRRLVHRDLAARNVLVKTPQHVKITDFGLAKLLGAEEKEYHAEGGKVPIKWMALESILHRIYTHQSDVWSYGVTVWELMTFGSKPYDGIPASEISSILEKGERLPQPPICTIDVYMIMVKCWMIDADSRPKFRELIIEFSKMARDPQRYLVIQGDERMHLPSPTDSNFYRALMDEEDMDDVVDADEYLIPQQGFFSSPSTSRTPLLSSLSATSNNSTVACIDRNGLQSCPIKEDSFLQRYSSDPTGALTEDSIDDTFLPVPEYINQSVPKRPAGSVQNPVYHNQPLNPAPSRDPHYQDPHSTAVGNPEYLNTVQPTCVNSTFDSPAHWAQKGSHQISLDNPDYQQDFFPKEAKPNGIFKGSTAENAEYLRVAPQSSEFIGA
# Summary of the method: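 Compound dilutions preincubated 10 min at room temperature; reaction ended with EDTA, then labeled antibody added for 1 h at room temperature. Inhibition rates derived from TR-FRET fluorescence signal, and IC50 obtained by curve fitting across concentrations.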
# [2] = molecular target: wild-type EGFR enzyme (Homo sapiens, UniProt P00533); experiment: Enzymologic experiment of wild-type (WT) EGFR (TR-FRET); assay type: biochemical; details: ATP 0.1 to 5 uM
# Chain of wild-type EGFR enzyme (P00533 25-1210): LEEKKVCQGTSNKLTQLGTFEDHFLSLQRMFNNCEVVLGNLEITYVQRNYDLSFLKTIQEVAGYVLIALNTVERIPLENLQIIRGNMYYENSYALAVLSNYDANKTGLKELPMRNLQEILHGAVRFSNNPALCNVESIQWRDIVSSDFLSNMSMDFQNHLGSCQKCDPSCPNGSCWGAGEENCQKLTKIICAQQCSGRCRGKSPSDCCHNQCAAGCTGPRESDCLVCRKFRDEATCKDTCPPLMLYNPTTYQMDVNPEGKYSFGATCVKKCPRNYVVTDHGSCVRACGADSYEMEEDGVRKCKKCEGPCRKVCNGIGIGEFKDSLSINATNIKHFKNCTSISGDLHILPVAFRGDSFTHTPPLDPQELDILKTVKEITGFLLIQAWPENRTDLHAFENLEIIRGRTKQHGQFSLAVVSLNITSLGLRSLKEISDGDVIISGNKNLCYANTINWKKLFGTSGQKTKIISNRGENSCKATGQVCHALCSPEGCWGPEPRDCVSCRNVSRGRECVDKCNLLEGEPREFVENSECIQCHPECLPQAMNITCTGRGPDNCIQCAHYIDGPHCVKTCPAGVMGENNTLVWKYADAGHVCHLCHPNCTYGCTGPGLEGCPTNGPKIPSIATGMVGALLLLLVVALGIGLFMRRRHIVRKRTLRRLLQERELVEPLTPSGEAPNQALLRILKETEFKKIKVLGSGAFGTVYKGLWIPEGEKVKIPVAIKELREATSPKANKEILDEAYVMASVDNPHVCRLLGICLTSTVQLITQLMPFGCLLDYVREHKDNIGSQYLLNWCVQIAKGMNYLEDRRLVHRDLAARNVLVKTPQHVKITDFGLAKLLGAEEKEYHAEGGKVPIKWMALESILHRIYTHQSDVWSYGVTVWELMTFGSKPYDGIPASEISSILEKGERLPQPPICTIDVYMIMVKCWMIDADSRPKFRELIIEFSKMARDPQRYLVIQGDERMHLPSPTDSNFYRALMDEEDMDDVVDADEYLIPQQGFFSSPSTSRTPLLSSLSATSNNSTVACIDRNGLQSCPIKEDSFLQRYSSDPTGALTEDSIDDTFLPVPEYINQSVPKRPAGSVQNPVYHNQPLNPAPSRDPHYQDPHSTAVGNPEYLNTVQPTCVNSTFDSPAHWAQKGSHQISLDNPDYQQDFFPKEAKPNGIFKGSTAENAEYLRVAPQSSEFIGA
# Summary of the method: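 Wild-type EGFR (0.1 to 1 nM final) preincubated with serially diluted compound for 10 minutes at room temperature; reaction stopped with EDTA, then labelled antibody added for 1 hour at room temperature. TR-FRET signal converted to inhibition rates; IC50 from curve fitting across concentrations.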
# [3] = system: NCI-H1975 cells; experiment: Inhibition of NCI-H1975 cell proliferation (CellTiter-Glo); assay type: cell-based; details: for IC50: NCI-H1975 cell proliferation, 72 hours, CellTiter-Glo, read-out: EGFR IC50 (nM) H1975; for Selectivity of wild-type/mutant-type: ratio A431 IC50 / H1975 IC50, cells
# [4] = system: A431 cells; experiment: Inhibition of A431 cell proliferation (CellTiter-Glo); assay type: cell-based; details: read-out: EGFR IC50 (nM) A431
# Experimental: 4. Experiment on the Inhibition of A431 Cell Proliferation
# In this experiment, the inhibitory effect of the compounds on A431 cell proliferation was tested by a CellTiter-Glo method, and the half maximal inhibitory concentration (IC50) of the compounds on the activity of cell proliferation was determined.
# The culture plate was incubated in the incubator for 16 to 24 hours (37° C., 5% CO2).
# 2) Different concentrations of the test compound in a gradient dilution were added to the cells in the culture plate. The culture plate was incubated in an incubator for 72 hours (37° C., 5% CO2).
# 3) 50 to 100 μL of CellTiter-Glo reagent was added to each well. Then the culture plate was shaken for 10 minutes, and left to stand at room temperature for 10 minutes.
# 4) The chemiluminescence signal values of each plate were determined by a microplate reader.
# 5) The inhibition rates were calculated according to the chemiluminescence signal values. 6) The IC50 of the compound was obtained by curve fitting according to the inhibition rates at different concentrations.
SMILES,IC50 [1] [nM],Selectivity of wild-type/mutant-type [1],IC50 [2] [nM],"IC50 ([3]; Homo sapiens, NCI-H1975, 72 h) [nM]","IC50 ([4]; Homo sapiens, A-431, 72 h) [nM]",IC50 [3] [nM],IC50 ([4]; 72 hours) [nM],Selectivity of wild-type/mutant-type [3]
"C=CC(=O)Nc1cc(Nc2nccc(-n3nc(C)c4cc(C#N)ccc43)n2)c(OC)cc1N(C)CCN(C)C [Example 56, N-(5-((4-(5-cyano-3-methyl-1H-indazol-1-yl)pyrimidin-2-yl)amino)-2-((2-(dimethylamino)ethyl)(methyl)amino)-4-methoxyphenyl)acrylamide]",1.54,10.56,16.3,7.08,688,–,–,97.25
"C=CC(=O)Nc1cc(Nc2ncc(C(F)(F)F)c(-n3cnc4cc(OC)ccc43)n2)c(OC)cc1N(C)CCN(C)C [Example 67, N-(2-((2-(dimethylamino)ethyl)(methyl)amino)-4-methoxy-5-((4-(5-methoxy-1H-benzo[d]imidazol-1-yl)-5-(trifluoromethyl)pyrimidin-2-yl)amino)phenyl)acrylamide]",1.63,231.9,378,3.73,321,–,–,85.95
"C=CC(=O)Nc1cc(Nc2nccc(-c3cn(C)c4ccc(F)c(F)c34)n2)c(OC)cc1N(C)CCN(C)C [Example 90, N-(5-((4-(4,5-difluoro-1-methyl-1H-indol-3-yl)pyrimidin-2-yl)amino)-2-((2-(dimethylamino)ethyl)(methyl)amino)-4-methoxyphenyl)acrylamide]",1.14,4.31,4.91,6.32,106,–,–,16.72
"C=CC(=O)Nc1cc(Nc2nccc(-c3cn(C)c4c(C5CC5)cccc34)n2)c(OC)cc1N(C)CCN(C)C [Example 91, N-(5-((4-(7-cyclopropyl-1-methyl-1H-indol-3-yl)pyrimidin-2-yl)amino)-2-((2-(dimethylamino)ethyl)(methyl)amino)-4-methoxyphenyl)acrylamide]",2.25,6.54,14.7,25.9,558,–,–,21.49
"C=CC(=O)Nc1cc(Nc2nccc(-c3cn(C)c4cc(C=C)ccc34)n2)c(OC)cc1N(C)CCN(C)C [Example 96, N-(2-((2-(dimethylamino)ethyl)(methyl)amino)-4-methoxy-5-((4-(1-methyl-6-vinyl-1H-indol-3-yl)pyrimidin-2-yl)amino)phenyl)acrylamide]",1.57,5.67,8.9,17.5,324,–,–,18.51
"C=CC(=O)Nc1cc(Nc2ncc(C(F)(F)F)c(-n3nc(C)c4cc(C#N)ccc43)n2)c(OC)cc1N(C)CCN(C)C [Example 106, N-(5-((4-(5-cyano-3-methyl-1H-indazol-1-yl)-5-(trifluoromethyl)pyrimidin-2-yl)amino)-2-((2-(dimethylamino)ethyl)(methyl)amino)-4-methoxyphenyl)acrylamide]",0.88,216.14,190,14.3,354,–,–,24.70
C=CC(=O)Nc1cc(Nc2ncc(C(F)(F)F)c(-n3nc(C)c4cc(OC)ccc43)n2)c(OC)cc1N(C)CCN(C)C [Example 107],0.76,36.84,28,2.76,98.3,–,–,35.61

# Now those with a lower IC50 [1], led by results:
IC50 [1] [nM],Selectivity of wild-type/mutant-type [1],IC50 [2] [nM],"IC50 ([3]; Homo sapiens, NCI-H1975, 72 h) [nM]","IC50 ([4]; Homo sapiens, A-431, 72 h) [nM]",IC50 [3] [nM],IC50 ([4]; 72 hours) [nM],SMILES,Selectivity of wild-type/mutant-type [3]
0.71,1.771,1.26,3.91,38.8,–,–,"C=CC(=O)Nc1cc(Nc2nccc(-c3c[nH]c4c(OC)cccc34)n2)c(OC)cc1N(C)CCN(C)C [Example 94, N-(2-((2-(dimethylamino)ethyl)(methyl)amino)-4-methoxy-5-((4-(7-methoxy-1H-indol-3-yl)pyrimidin-2-yl)amino)phenyl)acrylamide]",9.93
0.42,6.60,2.77,–,–,5.65,314,"C=CC(=O)Nc1cc(Nc2nccc(-n3nc(C4CC4)c4ccccc43)n2)c(OC)cc1N(C)CCN(C)C [Example 111, N-(5-((4-(3-cyclopropyl-1H-indazol-1-yl)pyrimidin-2-yl)amino)-2-((2-(dimethylamino)ethyl)(methyl)amino)-4-methoxyphenyl)acrylamide]",55.52
0.36,41.53,14.9,1.87,71,–,–,"C=CC(=O)Nc1cc(Nc2ncc(Cl)c(-n3cnc4cc(OC)ccc43)n2)c(OC)cc1N(C)CCN(C)C [Example 63, N-(5-((5-chloro-4-(5-methoxy-1H-benzo[d]imidazol-1-yl)pyrimidin-2-yl)amino)-2-((2-(dimethylamino)ethyl)(methyl)amino)-4-methoxyphenyl)acrylamide]",37.97
0.33,6.16,2.03,2.94,149,–,–,"C=CC(=O)Nc1cc(Nc2nccc(-n3cnc4ccc(OC)cc43)n2)c(OC)cc1N(C)CCN(C)C [Example 60, N-(2-((2-(dimethylamino)ethyl)(methyl)amino)-4-methoxy-5-((4-(6-methoxy-1H-benzo[d]imidazol-1-yl)pyrimidin-2-yl)amino)phenyl)acrylamide]",50.82
0.26,2.38,0.62,3.12,887,–,–,"C=CC(=O)Nc1cc(Nc2nccc(-n3ncc4cc(OCC)ccc43)n2)c(OC)cc1N(C)CCN(C)C [Example 105, N-(2-((2-(dimethylamino)ethyl)(methyl)amino)-5-((4-(5-ethoxy-1H-indazol-1-yl)pyrimidin-2-yl)amino)-4-methoxyphenyl)acrylamide]",284.29
0.24,6.71,1.61,1.95,98.6,–,–,"C=CC(=O)Nc1cc(Nc2nccc(-c3cn(S(=O)(=O)N(C)C)c4ccccc34)n2)c(OC)cc1N(C)CCN(CC)CC [Example 103, N-(2-((2-(diethylamino)ethyl)(methyl)amino)-5-((4-(1-(N,N-dimethylsulfamoyl)-1H-indol-3-yl)pyrimidin-2-yl)amino)-4-methoxyphenyl)acrylamide]",50.55
0.21,23.86,5.01,2.08,36.5,–,–,"C=CC(=O)Nc1cc(Nc2ncc(C(F)(F)F)c(-c3cn(C)c4cc(OC)ccc34)n2)c(OC)cc1N(C)CCN(C)C [Example 99, N-(2-((2-(dimethylamino)ethyl)(methyl)amino)-4-methoxy-5-((4-(6-methoxy-1-methyl-1H-indol-3-yl)-5-(trifluoromethyl)pyrimidin-2-yl)amino)phenyl)acrylamide]",17.57
0.2,5.00,1,2.92,154,–,–,"C=CC(=O)Nc1cc(Nc2ncc(Cl)c(-c3cn(C)c4cc(OC)ccc34)n2)c(OC)cc1N(C)CCN(C)C [Example 98, N-(5-((5-chloro-4-(6-methoxy-1-methyl-1H-indol-3-yl)pyrimidin-2-yl)amino)-2-((2-(dimethylamino)ethyl)(methyl)amino)-4-methoxyphenyl)acrylamide]",52.71
0.18,2.78,0.5,1.28,141,–,–,"C=CC(=O)Nc1cc(Nc2nccc(-c3c[nH]c4cc(OC)ccc34)n2)c(OC)cc1N(C)CCN(C)C [Example 97, N-(2-((2-(dimethylamino)ethyl)(methyl)amino)-4-methoxy-5-((4-(6-methoxy-1H-indol-3-yl)pyrimidin-2-yl)amino)phenyl)acrylamide]",109.92
0.16,2.5,0.4,1.95,9.22,–,–,"C=CC(=O)Nc1cc(Nc2nccc(-c3c[nH]c4c(C5CC5)cccc34)n2)c(OC)cc1N(C)CCN(C)C [Example 92, N-(5-((4-(7-cyclopropyl-1H-indol-3-yl)pyrimidin-2-yl)amino)-2-((2-(dimethylamino)ethyl)(methyl)amino)-4-methoxyphenyl)acrylamide]",4.73
